Measurements from PubChem BioAssay AID248 (DTP/NCI, 2004).
Values joined by “and” are separate entries in the source; they are usually repeats but may differ in a detail not shown here. Equal values may be shown once. Toxic doses and inconclusive results are not listed. No stated cut-off is given here; in the data, active means T/C of 150% or more; inactive means T/C below 125%.

Test system: L1210 leukemia ip in BDF1 mice, survival T/C
Assay: NCI In Vivo Anticancer Drug Screen. Data for tumor model L1210 Leukemia (intraperitoneal) in B6D2F1 (BDF1) mice
Details: endpoint: mean survival time, higher = longer survival
How it was run: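 Value reflects the ratio of survival in compound-treated mice to survival in vehicle-treated controls, with both groups carrying the same transplanted tumor.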

[1] = dose: 50.0 mg/kg/injection, schedule: Q01DX009 (ip), vehicle: saline with Tween-80
[2] = dose: 100.0 mg/kg/injection, schedule: Q01DX009 (ip), vehicle: saline with Tween-80
[3] = dose: 75.0 mg/kg/injection, schedule: Q04DX003 (ip), vehicle: Klucel (hydroxypropylcellulose) (HPC)
[4] = dose: 150.0 mg/kg/injection, schedule: Q04DX003 (ip), vehicle: Klucel (hydroxypropylcellulose) (HPC)
[5] = dose: 12.5 mg/kg/injection, schedule: Q01DX009 (ip), vehicle: saline with Tween-80
[6] = dose: 25.0 mg/kg/injection, schedule: Q01DX009 (ip), vehicle: saline with Tween-80
[7] = dose: 100.0 mg/kg/injection, schedule: Q04DX003 (ip), vehicle: saline
[8] = dose: 200.0 mg/kg/injection, schedule: Q04DX003 (ip), vehicle: saline
[9] = dose: 100.0 mg/kg/injection, schedule: Q01DX009 (ip), vehicle: other
[10] = dose: 200.0 mg/kg/injection, schedule: Q01DX009 (ip), vehicle: other
[11] = dose: 100.0 mg/kg/injection, schedule: Q04DX003 (ip), vehicle: saline with Tween-80
[12] = dose: 200.0 mg/kg/injection, schedule: Q04DX003 (ip), vehicle: saline with Tween-80
[13] = dose: 400.0 mg/kg/injection, schedule: Q04DX003 (ip), vehicle: saline with Tween-80
[14] = dose: 100.0 mg/kg/injection, schedule: Q01DX001 (ip), vehicle: carboxymethylcellulose (CMC)
[15] = dose: 200.0 mg/kg/injection, schedule: Q01DX001 (ip), vehicle: carboxymethylcellulose (CMC)
[16] = dose: 400.0 mg/kg/injection, schedule: Q01DX001 (ip), vehicle: carboxymethylcellulose (CMC)
[17] = dose: 100.0 mg/kg/injection, schedule: Q01DX001 (ip), vehicle: saline
[18] = dose: 200.0 mg/kg/injection, schedule: Q01DX001 (ip), vehicle: saline
[19] = dose: 400.0 mg/kg/injection, schedule: Q01DX001 (ip), vehicle: saline

Measured: T/C

O=C(Nc1ccc(C2=NCCN2)cc1)c1ccc(C(=O)Nc2ccc(C3=NCCN3)cc2)o1
inactive: dose: 15.0 mg/kg/injection, schedule: Q01DX Z (ip), vehicle: carboxymethylcellulose (CMC) 113 % of control | dose: 30.0 mg/kg/injection, schedule: Q01DX Z (ip), vehicle: carboxymethylcellulose (CMC) 120 % of control | dose: 480.0 mg/kg/injection, schedule: Q01DX Z (ip), vehicle: saline 111 % of control
active: dose: 120.0 mg/kg/injection, schedule: Q01DX Z (ip), vehicle: carboxymethylcellulose (CMC) 248 % of control | dose: 240.0 mg/kg/injection, schedule: Q01DX Z (ip), vehicle: saline 252 % of control

[Cl][Ge]([Cl])([c]1ccccc1)[c]1ccccc1
inactive: dose: 50.0 mg/kg/injection, schedule: Q01DX009 (ip), vehicle: Klucel (hydroxypropylcellulose) (HPC) 96 % of control | dose: 100.0 mg/kg/injection, schedule: Q01DX009 (ip), vehicle: Klucel (hydroxypropylcellulose) (HPC) 96 % of control | dose: 100.0 mg/kg/injection, schedule: Q04DX003 (ip), vehicle: Klucel (hydroxypropylcellulose) (HPC) 98 % of control | dose: 200.0 mg/kg/injection, schedule: Q04DX003 (ip), vehicle: Klucel (hydroxypropylcellulose) (HPC) 94 % of control

COc1ccc(Cc2nnc(Cc3ccc(OC)c(OC)c3)nn2)cc1OC
inactive: [1] 89 % of control | [2] 93 % of control | dose: 200.0 mg/kg/injection, schedule: Q01DX009 (ip), vehicle: saline with Tween-80 87 % of control

O=C(Cc1ccccc1)Nc1cccnc1
inactive: [3] 102 % of control | dose: 100.0 mg/kg/injection, schedule: Q01DX001 (ip), vehicle: Klucel (hydroxypropylcellulose) (HPC) 97 % of control | [4] 114 % of control | dose: 200.0 mg/kg/injection, schedule: Q01DX001 (ip), vehicle: Klucel (hydroxypropylcellulose) (HPC) 103 % of control | dose: 300.0 mg/kg/injection, schedule: Q04DX003 (ip), vehicle: Klucel (hydroxypropylcellulose) (HPC) 104 % of control | dose: 400.0 mg/kg/injection, schedule: Q01DX001 (ip), vehicle: Klucel (hydroxypropylcellulose) (HPC) 92 % of control

C[n+]1c2c(cc3ccccc31)CCC2
inactive: [5] 87 % of control | [6] 97 % of control | [1] 108 % of control and 90 % of control

O=C1C=C2CCN(Cc3ccccc3)CC2CC1 (stereo unspecified)
inactive: dose: 100.0 mg/kg/injection, schedule: Q01DX001 (ip), vehicle: acetone 97 % of control | [7] 104 % of control | dose: 200.0 mg/kg/injection, schedule: Q01DX001 (ip), vehicle: acetone 102 % of control | [8] 101 % of control | dose: 400.0 mg/kg/injection, schedule: Q01DX001 (ip), vehicle: acetone 98 % of control

S=C=NCCc1ccccc1
inactive: [5] 101 % of control | [6] 104 % of control | [1] 108 % of control | [2] 87 % of control

Nc1ccc(OCc2ccc(S(=O)(=O)F)c(Cl)c2)c(Cl)c1
inactive: [9] 91 % of control | [7] 93 % of control | [10] 92 % of control | [8] 95 % of control | dose: 400.0 mg/kg/injection, schedule: Q04DX003 (ip), vehicle: saline 98 % of control

Cc1ccc2c(c1)NP(=S)(c1ccccc1)N2 (stereo unspecified)
inactive: [11] 103 % of control | [12] 103 % of control | [13] 100 % of control

CCC(C)OC(=O)Nc1cccc(OC(=O)N(CC)CC)c1 (stereo unspecified)
inactive: dose: 100.0 mg/kg/injection, schedule: Q01DX001 (ip), vehicle: saline with Tween-80 103 % of control | dose: 200.0 mg/kg/injection, schedule: Q01DX001 (ip), vehicle: saline with Tween-80 90 % of control | dose: 400.0 mg/kg/injection, schedule: Q01DX001 (ip), vehicle: saline with Tween-80 100 % of control

CCCCOC(=O)CSSCC(=O)OCCCC
inactive: [11] 106 % of control | [12] 109 % of control

CN(C)C1c2cc(Br)ccc2-c2ccc([N+](=O)[O-])cc21 (stereo unspecified)
inactive: [14] 94 % of control | [15] 103 % of control | [16] 100 % of control

BrCc1nc2ccccc2[nH]1
inactive: [17] 95 % of control | [18] 101 % of control | [19] 107 % of control

O=C(O)c1c[nH]c2c(Cl)cc(Cl)cc2c1=O
inactive: [18] 94 % of control | [19] 87 % of control

O=C(O)c1c[nH]c2c(ccc3ccccc32)c1=O
inactive: dose: 100.0 mg/kg/injection, schedule: Q04DX002 (ip), vehicle: Klucel (hydroxypropylcellulose) (HPC) 103 % of control | dose: 200.0 mg/kg/injection, schedule: Q04DX002 (ip), vehicle: Klucel (hydroxypropylcellulose) (HPC) 122 % of control | dose: 400.0 mg/kg/injection, schedule: Q04DX002 (ip), vehicle: Klucel (hydroxypropylcellulose) (HPC) 92 % of control

CN1CCc2[nH]c3ccccc3c2C1
inactive: [3] 93 % of control | [4] 93 % of control

Nc1ccc(Cl)cc1C(=O)c1ccccn1
inactive: [11] 100 % of control | [12] 108 % of control | [13] 97 % of control

CC(C(=O)O)C(NC(=O)OCc1ccccc1)C(=O)O (stereo unspecified)
inactive: [9] 93 % of control | dose: 100.0 mg/kg/injection, schedule: Q04DX003 (ip), vehicle: other 99 % of control | [10] 91 % of control | dose: 200.0 mg/kg/injection, schedule: Q04DX003 (ip), vehicle: other 99 % of control | dose: 400.0 mg/kg/injection, schedule: Q01DX009 (ip), vehicle: other 98 % of control | dose: 400.0 mg/kg/injection, schedule: Q04DX003 (ip), vehicle: other 98 % of control

CCOC(=O)Nc1cc(NC(c2ccccc2)c2ccccc2)c([N+](=O)[O-])c(N)n1
inactive: [14] 91 % of control | [15] 91 % of control | [16] 89 % of control

CN(C)c1nc(N)c(N=O)c(N)n1
inactive: dose: 100.0 mg/kg/injection, schedule: Q04DX002 (ip), vehicle: saline with Tween-80 111 % of control | dose: 200.0 mg/kg/injection, schedule: Q04DX002 (ip), vehicle: saline with Tween-80 107 % of control | dose: 400.0 mg/kg/injection, schedule: Q04DX002 (ip), vehicle: saline with Tween-80 104 % of control

CN(C)C(=S)N(C(=S)N(C)C)c1ccccc1
inactive: [17] 95 % of control | [18] 103 % of control | [19] 108 % of control

OCC1CC(n2cnc3c(=S)nc[nH]c32)C(O)C1O (stereo unspecified)
inactive: dose: 50.0 mg/kg/injection, schedule: Q01DX001 (ip), vehicle: saline 96 % of control | [17] 96 % of control | [18] 96 % of control

CC(=O)CC(=O)C(F)(F)F.[O]=[U]=[O]
inactive: dose: 0.37 mg/kg/injection, schedule: Q01DX009 (ip), vehicle: gum acacia 99 % of control | dose: 0.75 mg/kg/injection, schedule: Q01DX009 (ip), vehicle: gum acacia 101 % of control | dose: 1.5 mg/kg/injection, schedule: Q01DX009 (ip), vehicle: gum acacia 101 % of control | dose: 6.25 mg/kg/injection, schedule: Q01DX005 (ip), vehicle: gum acacia 99 % of control | dose: 6.25 mg/kg/injection, schedule: Q01DX009 (ip), vehicle: gum acacia 98 % of control | dose: 12.5 mg/kg/injection, schedule: Q01DX005 (ip), vehicle: gum acacia 86 % of control | dose: 12.5 mg/kg/injection, schedule: Q04DX002 (ip), vehicle: gum acacia 104 % of control | dose: 25.0 mg/kg/injection, schedule: Q04DX002 (ip), vehicle: gum acacia 87 % of control

C[N+](C)(C)Cc1c(CC(O)(c2ccccc2)c2ccccc2)ccc2ccccc12
inactive: dose: 50.0 mg/kg/injection, schedule: Q01DX001 (ip), vehicle: carboxymethylcellulose (CMC) 102 % of control | [14] 94 % of control

CC[C@@]1(O)C(=O)OCc2c1cc1n(c2=O)Cc2c-1nc1ccccc1c2Cl
inactive: [17] 117 % of control | [19] 88 % of control

C/C(=N/N=C(N)N)C(F)(F)F
inactive: dose: 15.0 mg/kg/injection, schedule: Q01DX Z (ip), vehicle: saline 104 % of control | dose: 15.0 mg/kg/injection, schedule: Q01DX Z (oral), vehicle: saline 108 % of control | dose: 30.0 mg/kg/injection, schedule: Q01DX Z (ip), vehicle: saline 87 % of control | dose: 30.0 mg/kg/injection, schedule: Q01DX Z (oral), vehicle: saline 106 % of control

CC(C(=O)O)c1ccccc1 (stereo unspecified)
inactive: [5] 95 % of control | [6] 95 % of control | [1] 95 % of control and 90 % of control
